The conditions of this series: 298.15 K, Ring tensiometer.

Each structure is given as a SMILES string. ± gives the expanded uncertainty stated by the source.

On to `CCCCCOP(=O)(OCCCCC)OCCCCC` [tripentyl phosphate], for which the surface tension liquid-gas was 26.2 ± 3 mN/m. To `O=P(OCC(F)(F)C(F)(F)C(F)(F)C(F)F)(OCC(F)(F)C(F)(F)C(F)(F)C(F)F)OCC(F)(F)C(F)(F)C(F)(F)C(F)F` [tris (1H,1H,5H-octafluoropentyl) phosphate] belongs 22.9 ± 3 mN/m.

The surface tension liquid-gas is the work needed to enlarge the surface of a liquid by unit area.

These data come from the NIST ThermoML archive (doi:10.1016/j.fluid.2017.06.026).
